Marks after values point to notes of the source that are not given here.
Columns and labels:
human 5-HT2C-INI = target: T1, human 5-HT2C-INI (Homo sapiens, UniProt P28335); test: Phosphoinositide hydrolysis functional assay; assay type: cell-based; conditions: for EC50: activation of phosphoinositide hydrolysis, stably expressed receptor; for Emax: value in brackets, read-out: percent Vmax relative to serotonin at 100%, 5-HT2C (converted)
T1 construct: expressed in transfected cells
T1 sequence (P28335 33-458): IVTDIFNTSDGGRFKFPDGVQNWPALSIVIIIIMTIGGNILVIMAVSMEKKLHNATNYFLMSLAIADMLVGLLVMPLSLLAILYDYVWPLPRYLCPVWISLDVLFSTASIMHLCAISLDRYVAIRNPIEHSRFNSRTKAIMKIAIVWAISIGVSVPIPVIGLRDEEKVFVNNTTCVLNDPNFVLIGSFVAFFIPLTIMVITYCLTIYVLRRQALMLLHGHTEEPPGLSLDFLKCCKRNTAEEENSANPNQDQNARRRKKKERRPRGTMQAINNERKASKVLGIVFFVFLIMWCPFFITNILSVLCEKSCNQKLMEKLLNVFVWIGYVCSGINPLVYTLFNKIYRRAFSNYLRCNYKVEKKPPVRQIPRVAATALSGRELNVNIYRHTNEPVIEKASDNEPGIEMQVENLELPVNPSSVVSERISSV
Description: (§1) Phosphoinositide hydrolysis assays were performed with stably (5-HT2A, 5-HT2C) or transiently (5-HT2B) expressed receptors plated in 24-well culture plates. Transfected cells were loaded with […] overnight in inositol-free DMEM without serum. The next day, phosphate accumulation assays were performed in a modified Krebs-bicarbonate buffer. Kact (nmol/L) and percent Vmax (relative to 5-HT) values were calculated (Roth, B. L., Shoham, M., Choudhary, M., Khan, N. “Identification of Conserved Aromatic Residues Essential for Agonist Binding and Second Messenger Production at 5-Hydroxytryptamine 2A Receptors” Mol. Pharmacol. 1997, 52, 259; Roth, B. L., Choudhary, M., Khan, N., Uluer, A. “High-affinity Agonist Binding is not Sufficient for Agonist Efficacy at 5-Hydroxytryptamine 2A Receptors: Evidence in Favor of a Modified Ternary Complex Model” J. Pharmacol. Exp. Ther. 1997, 280, 576).
(§2) Functional Assay (EC50) in nM. Data represent mean EC50 values for activation of phospho-inositide hydrolysis in cells expressing human 5-HT2A, 5-HT2B or 5-HT2C-INI receptors, relative to serotonin at 100%. When the standard deviation is given, N≧3.

[1] = Appetite suppression in mice, acute assay (food consumption); assay type: in vivo; conditions: for Mean food consumption 60 min. after injection: g (±SEM) Compound / Mean food consumption 90 min. after injection: g (±SEM) Compound: mice deprived of food 18 hours
Description: Mice were deprived of food, but not water, for 18 hours. They were then injected i.p. with test compounds dissolved in 0.9% NaCl containing 1 mg per ml ascorbic acid for protection against oxidation. Each mouse was placed in an individual cage for 30 minutes and then presented with a small petri dish containing a gel made from gelatin, powdered milk and sucrose. The dish was weighed at zero time and at 15-minute intervals for the next hour in order to quantitate food consumption. Controls were injected with saline-ascorbic acid; ±fenfluramine was used as an active control. Control consumption generally ranged from 1.5 to 2.0 grams.

5-HT2A [2] = target: T2, 5-HT2A (Homo sapiens, UniProt P28223); test: Receptor binding, competition binding assay
T2 sequence (P28223 whole entry): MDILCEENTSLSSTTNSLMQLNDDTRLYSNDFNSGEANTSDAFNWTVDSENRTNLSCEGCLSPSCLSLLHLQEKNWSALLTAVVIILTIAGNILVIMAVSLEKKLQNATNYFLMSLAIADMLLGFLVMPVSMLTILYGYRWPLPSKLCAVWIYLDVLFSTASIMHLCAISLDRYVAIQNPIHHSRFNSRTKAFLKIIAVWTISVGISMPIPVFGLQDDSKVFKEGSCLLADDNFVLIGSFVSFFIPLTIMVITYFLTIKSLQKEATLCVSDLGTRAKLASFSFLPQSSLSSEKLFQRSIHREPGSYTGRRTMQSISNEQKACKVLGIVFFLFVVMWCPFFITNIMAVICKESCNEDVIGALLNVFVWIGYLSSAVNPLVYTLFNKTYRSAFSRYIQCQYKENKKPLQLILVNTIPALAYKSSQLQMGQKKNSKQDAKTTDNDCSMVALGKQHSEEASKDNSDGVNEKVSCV
Description: (§3) For initial screens, a 10 micromolar concentration of each compound (dissolved in 10% DMSO) was incubated with the appropriate receptor preparation and percent inhibition determined for duplicate determinations each performed in duplicate. Where >50% inhibition of specific binding was measured, Ki determinations were then measured by competition binding assays in which concentrations from 1 to 100,000 nM were incubated in duplicate. For each Ki value the data represent the mean+/−SD of computer-derived estimates for N=4 separate determinations, as described (Rothman, R., Baumann, M., Savage, J., Rauser, L., McBride, A., Hufeisen, S., Roth, B. L. “Evidence for Possible Involvement of 5-HT2B Receptors in the Cardiac Valvulopathy Associated with Fenfluramine and other Serotonergic Medications” Circulation 2000, 102, 2836; Roth, B. L., Shoham, M., Choudhary, M., Khan, N. “Identification of Conserved Aromatic Residues Essential for Agonist Binding and Second Messenger Production at 5-Hydroxytryptamine 2A Receptors” Mol. Pharmacol. 1997, 52, 259; Roth, B. L., Choudhary, M., Khan, N., Uluer, A. “High-affinity Agonist Binding is not Sufficient for Agonist Efficacy at 5-Hydroxytryptamine 2A Receptors: Evidence in Favor of a Modified Ternary Complex Model” J. Pharmacol. Exp. Ther. 1997, 280, 576).
(§4) Receptor binding (Ki) in nM. When the standard deviation is given N≧3.

5-HT2C [3] = target: T3, 5-HT2C (Homo sapiens, UniProt P28335); test: Receptor binding, competition binding assay
T3 sequence (P28335 33-458): T1 sequence (P28335 33-458)
Description: as §3, §4

5-HT2B [4] = target: T4, 5-HT2B (Homo sapiens, UniProt P41595); test: Receptor binding, competition binding assay
T4 sequence (P41595 whole entry): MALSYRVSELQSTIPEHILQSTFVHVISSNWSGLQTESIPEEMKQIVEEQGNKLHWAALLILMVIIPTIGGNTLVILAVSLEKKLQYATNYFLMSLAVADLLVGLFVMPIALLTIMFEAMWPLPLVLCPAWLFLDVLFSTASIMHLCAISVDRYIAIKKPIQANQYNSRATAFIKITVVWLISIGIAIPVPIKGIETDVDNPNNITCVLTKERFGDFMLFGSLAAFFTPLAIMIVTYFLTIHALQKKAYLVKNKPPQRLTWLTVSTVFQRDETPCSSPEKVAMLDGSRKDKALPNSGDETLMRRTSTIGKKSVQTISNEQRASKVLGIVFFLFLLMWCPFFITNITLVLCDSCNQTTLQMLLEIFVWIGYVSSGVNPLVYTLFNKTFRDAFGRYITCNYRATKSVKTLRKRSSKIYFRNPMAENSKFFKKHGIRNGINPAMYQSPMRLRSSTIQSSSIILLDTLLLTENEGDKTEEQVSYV
Description: as §3, §4

[5] = tested on: itch-associated scratching induced by serotonin; test: Animal model for OCD: serotonin-induced scratching; assay type: in vivo, male Swiss-Webster mice; conditions: for Number of Scratches as Percentage of Control: inducer Serotonin
Description: (§5) The 5-HT action is at least partly mediated by 5-HT2 receptors in the skin, as shown by blocking with specific antagonists (Yamaguchi, T., Nagasawa, T., Satoh, M., Kuraishi, Y. “Itch-associated Response Induced by Intradermal Serotonin Through 5-HT2 Receptors in Mice” Neurosci. Res. 1999, 35, 77). The effect of test compounds on itch-associated scratching in the mice may indicate their action on 5-HT receptors, and a study was carried out as an animal model for OCD. The subjects were male Swiss-Webster mice, 4-6 weeks old, weighing 25-45 g. Mice were housed 5 per cage, given free access to standard mouse food and water except during experiments, and maintained in a temperature-controlled room (70° F.). Serotonin and all test drugs were made up with ascorbic acid to protect against oxidation. Two mice, one a control, the other experimental, were tested each time. Each mouse was separately placed into a plexiglas box.
(§6) Mice were injected subcutaneously between the shoulder blades with either 0.1 ml of serotonin, 0.4 mg per ml in 0.15 M saline plus ascorbic acid, 1 mg/ml, or compound 48-80 (the copolymer product of N-methyl-p-methoxyphenethylamine with formaldehyde), 1.0 mg/ml in saline plus ascorbic acid. Test compounds were injected i.p. 5 minutes before the inducer. The cumulative number of scratches with a hind leg was recorded at 5 minute intervals for 30 minutes. One saline injected control and one test animal were tested together in each assay.

5-HT2A [6] = target: T2, 5-HT2A; test: Phosphoinositide hydrolysis functional assay; assay type: cell-based; design: expressed in transfected cells; conditions: for EC50: activation of phosphoinositide hydrolysis, stably expressed receptor; for percent Vmax relative to serotonin at 100%, 5-HT2A: value in brackets
Description: as §1, §2

5-HT2B [7] = target: T4, 5-HT2B; test: Phosphoinositide hydrolysis functional assay; assay type: cell-based; design: expressed in transfected cells; conditions: for EC50: activation of phosphoinositide hydrolysis, transiently expressed receptor
Description: as §1, §2

[8] = tested on: itch-associated scratching induced by compound 48-80; test: Animal model for OCD: compound 48-80-induced scratching; assay type: in vivo, male Swiss-Webster mice
Description: as §5
as §6, with “One saline injected control and one test animal were tested together in each assay.” left out

[9] = Appetite suppression in mice, chronic assay (body weight); assay type: in vivo
Description: Mice were injected i.p. at intervals of 2 or 3 days and weighed repeatedly (6 or 7 total injections). Controls were injected with saline. Weighing and injection were carried out between 11 AM and 1 PM.

5-HT2C [10] = target: T3, 5-HT2C; conditions: background, literature; cited from earlier work
[11] = 5 mg/kg i.p. 5 minutes before inducer Serotonin
[12] = 20 mg/kg i.p. at intervals of 2 or 3 days
[13] = 30 mg/kg i.p. at intervals of 2 or 3 days

Structure (SMILES) | EC50 (human 5-HT2C-INI) | Emax (human 5-HT2C-INI) | % of Control (food consumption 60 min. after injection) ([1]; 10 mg/kg i.p.) | % of Control (food consumption 90 min. after injection) ([1]; 10 mg/kg i.p.) | Mean food consumption 60 min. after injection: g (±SEM) Compound ([1]; 10 mg/kg i.p.) | Mean food consumption 90 min. after injection: g (±SEM) Compound ([1]; 10 mg/kg i.p.) | % of Control (food consumption 60 min. after injection) ([1]; 20 mg/kg i.p.) | % of Control (food consumption 90 min. after injection) ([1]; 20 mg/kg i.p.) | Mean food consumption 60 min. after injection: g (±SEM) Compound ([1]; 20 mg/kg i.p.) | Mean food consumption 90 min. after injection: g (±SEM) Compound ([1]; 20 mg/kg i.p.) | % of Control (food consumption 60 min. after injection) ([1]; 30 mg/kg i.p.) | % of Control (food consumption 90 min. after injection) ([1]; 30 mg/kg i.p.) | Mean food consumption 60 min. after injection: g (±SEM) Compound ([1]; 30 mg/kg i.p.) | Mean food consumption 90 min. after injection: g (±SEM) Compound ([1]; 30 mg/kg i.p.) | Ki (5-HT2A [2]) | Ki (5-HT2C [3]) | Ki (5-HT2B [4]) | melting point | EC50 (5-HT2A [6]) | EC50 (5-HT2B [7]) | further results
CN(C)CCc1cn(C)c2c(F)ccc(O)c12 [Compound O-3804, 3-(2-Dimethylaminoethyl)-7-fluoro-1-methyl-1H-indol-4-ol] | 0.000517 µM | 89.9% | 114% | 96% | 1.3 (.14) g | 1.76 (.15) g | 99% | 107% | 1.48 (.19) g | 1.86 (.20) g | 56% | 77% | 0.79 (.09)* g | 1.37 (.11) g | 0.0682 µM | 0.0254 µM | 0.00364 µM | 134 to 138 °C | 0.129 ± 0.00144 µM | 0.0354 ± 0.00131 µM | Average Number of Scratches 30 min. after injection [5, 11]: 128.4; Number of Scratches as Percentage of Control ([5]; 5 mg/kg i.p.): 34.2%; Average Number of Scratches 30 min. after injection ([5]; 20 mg/kg i.p. 5 minutes before inducer Serotonin): 12.8*; Number of Scratches as Percentage of Control ([5]; 20 mg/kg i.p.): 2.2%; percent Vmax relative to serotonin at 100%, 5-HT2A (5-HT2A [6]): (125.4% ± 6.225%); percent Vmax relative to serotonin at 100%, 5-HT2B (5-HT2B [7]; value in brackets): (7.0 ± 0.92%)
CCn1cc(CCN(C)C)c2c(O)ccc(F)c21 [Compound O-3943, 3-(2-Dimethylaminoethyl)-7-fluoro-1-ethyl-1H-indol-4-ol] | 0.0054 ± 0.0025 µM | 100% | – | – | – | – | – | – | – | – | – | – | – | – | 0.097 ± 0.035 µM | 0.0091 ± 0.00399 µM | 0.0025 ± 0.00084 µM | 114 to 120 °C | 0.0129 µM | > 10 µM | –
CN(C)CCc1cn(C)c2c(F)ccc(OP(=O)(O)O)c12 [Compound O-3944, 3-(2-Dimethylaminoethyl)-7-fluoro-1-methyl-1H-indol-4-phosphate] | – | – | 74% | 75% | 0.84 (.17) g | 1.38 (.13) g | 41% | 62% | 0.56 (.10)* g | 1.05 (.14)* g | 15% | 55% | 0.13 (.05)* g | 0.65 (.11)* g | – | – | – | – | – | – | Average Number of Scratches 30 min. after injection ([8]; 30 mg/kg i.p. 5 minutes before inducer 48-80): 0*; Number of Scratches as Percentage of Control ([8]; 30 mg/kg i.p., inducer 48-80): 0%; Day 7 % Δ from starting weight [9, 12]: −1.75* %; Day 7 Difference within same group [9, 12]: -0.78 g; Day 14 % Δ from starting weight [9, 12]: −2.04* %; Day 14 Difference within same group [9, 12]: -0.91 g; Day 7 % Δ from starting weight [9, 13]: −3.66* %; Day 7 Difference within same group [9, 13]: -1.89 g; Day 14 % Δ from starting weight [9, 13]: −4.13* %; Day 14 Difference within same group [9, 13]: -2.13 g; Average Number of Scratches 30 min. after injection ([5]; 2 mg/kg i.p. 5 minutes before inducer Serotonin): 231.6; Number of Scratches as Percentage of Control ([5]; 2 mg/kg i.p.): 39.3%; Average Number of Scratches 30 min. after injection [5, 11]: 113.4*; Number of Scratches as Percentage of Control ([5]; 5 mg/kg i.p.): 20.2%
CCCn1cc(CCN(C)C)c2c(O)ccc(F)c21 [Compound O-3952, 3-(2-Dimethylaminoethyl)-7-fluoro-1-propyl-1H-indol-4-ol] | 0.011 ± 0.004 µM | 89% | – | – | – | – | – | – | – | – | – | – | – | – | 0.492 ± 0.0793 µM | 0.0105 ± 0.00239 µM | 0.0028 ± 0.00031 µM | 75 to 79 °C | 1.28 µM | > 10 µM | percent Vmax relative to serotonin at 100%, 5-HT2A (5-HT2A [6]): 103% +/− 7
CN(C)CCc1cn(CCF)c2c(F)ccc(O)c12 [Compound O-3975, 3-(2-Dimethylaminoethyl)-7-fluoro-1-(2-fluoroethyl)-1H-indol-4-ol] | > 2 µM | – | – | – | – | – | – | – | – | – | – | – | – | – | 0.308 ± 0.0614 µM | 0.00774 ± 0.00065 µM | 0.00277 ± 0.00031 µM | 97 to 101 °C | 0.614 µM | > 10 µM | –
C[C@H](N)Cn1ccc2cc(F)c(Cl)cc21 [Ro 60-0175] | – | – | – | – | – | – | – | – | – | – | – | – | – | – | – | – | – | – | – | – | times more active at 5-HT2C as compared to 5-HT2A (5-HT2C [10]): 25 times
